The results in this text go back to ChEMBL document CHEMBL1127340, “A new approach to the design of sigma-2-selective ligands: synthesis and evaluation of N-[2-(3,4-dichlorophenyl)ethyl]-N-methyl-2-(1- pyrrolidinyl)ethylamine-related polyamines at sigma-1 and sigma-2 receptor subtypes” (J Med Chem, 1994).

pKi: −log10 of the molar value.

The target in this assay is Sigma 2 receptor. Put plainly: Binding affinity towards sigma 2 receptor was determined in rat liver membrane using [3H]DTG as radioligand in presence of dextrallorphan. In kind it is cell membranes.
As usually defined, the pKi is −log10 of the Ki, conventionally taken in molar units. As to `Clc1ccc(CCNCCNCCN2CCCC2)cc1Cl`, the pKi was 6.95.

In the case of `CN(CCCCN1CCCC1)CCCN(C)CCc1ccc(Cl)c(Cl)c1`, the pKi was 6.82.

Regarding `NCCNCCNCCc1ccc(Cl)c(Cl)c1`, the negative-log Ki (pKi) was 6.27.

Take `CN(CCCN(C)Cc1ccc(Cl)c(Cl)c1)CCN1CCCC1`: the negative-log Ki (pKi) was 7.28.

With `CN(CCc1ccc(Cl)c(Cl)c1)CCN(C)CCN(C)CCN(C)CCN1CCCC1`, the pKi was 6.79.

Consider `CN(CCCCN(C)CCc1ccc(Cl)c(Cl)c1)CCCCN1CCCC1`, for which the pKi is 6.94.

Turning to `CN(CCN(C)Cc1ccc(Cl)c(Cl)c1)CCN1CCCC1`, the pKi was 7.92.

Regarding `CN(CCc1ccc(Cl)c(Cl)c1)CCN(C)CCN(C)CCN1CCCC1`, the pKi was 7.27.

`CN(CCCN1CCCC1)CCN(C)Cc1ccc(Cl)c(Cl)c1`: the pKi was 6.74.

Regarding `CN(CCc1ccc(Cl)c(Cl)c1)CCN1CCCC1`, the pKi is 8.09.

Consider `NCCN(CCc1ccc(Cl)c(Cl)c1)CCN1CCCC1`, for which the pKi is 6.87.

For the molecule `CN(CCCN(C)CCc1ccc(Cl)c(Cl)c1)CCCN1CCCC1`, the pKi is 7.83.

Regarding `CN(CCc1ccc(Cl)c(Cl)c1)CCN(C)CCN1CCCC1`, the pKi was 7.84.

In the case of `NCCNCCc1ccc(Cl)c(Cl)c1`, the negative logarithm of the Ki (pKi) was 5.63.

For `Clc1ccc(CCN2CCCC2)cc1Cl`, the pKi was 5.11.
